{"source": "patent US20240285627A1", "about": "“DRUG COMBINATION OF FAK INHIBITOR AND IMMUNOGENIC CELL DEATH INDUCER AND USE THEREOF” (INXMED (NANJING) CO., LTD., priority 2022, published 2024)", "key": {"[1]": {"tested_on": "mouse colon cancer CT26-KRAS G12C allograft tumor", "test": "In vivo pharmacodynamic study, BALB/c mouse subcutaneous allograft tumor model of CT26-KRAS G12C cells (Example 8)", "description": "Species: mice; Strain: BALB/c mice; Age and weight: 6-8 weeks old, weighing: 18-22 g; Gender: female; Quantity: 49 (excluding remaining mice after grouping); Supplier: LINGCHANG BIOTECH.\nMouse colon cancer CT26-KRAS G12C cells were cultured in monolayer in vitro. The culture conditions were RPMI1640 medium with 10% fetal bovine serum, 1% penicillin/streptomycin/amphotericin B, and 37° C. 5% CO2 incubator. Trypsin-EDTA was used twice a week for routine digestion and passage. When the cell saturation was 80%-90% and the number reached the requirements, the cells were collected, counted and inoculated.\n0.1 mL (0.3×10^6 cells) of CT26-KRAS G12C cells were subcutaneously inoculated on the right back of each mouse, and grouping and drug administration began when the average tumor volume reached about 55 mm^3.\nThe diameter of tumor was measured three times a week with vernier caliper. The formula for calculating the tumor volume is: V=0.5×a×b^2, where a and b represent the long and short diameters of the tumor respectively.\nThe anti-tumor effect of the compound was evaluated by TGI (%) or relative tumor proliferation rate T/C(%). The relative tumor proliferation rate is T/C(%)=TRTV/CRTV×100% (TRTV: RTV in treatment group; CRTV: RTV in negative control group). According to the results of tumor measurement, the relative tumor volume (RTV) was calculated, and the calculation formula is RTV=Vt/V0, where V0 is the average tumor volume measured at the time of grouping and drug administration (i.e., D0), Vt is the average tumor volume measured at a certain time, and data on the same day were used for TRTV and CRTV.\nTGI (%) reflects the tumor growth inhibition rate. TGI (%)=[1−(average tumor volume at the end of administration in a certain treatment group-average tumor volume at the beginning of administration in the treatment group)/(average tumor volume at the end of administration in solvent control group-average tumor volume at the beginning of administration in the solvent control group)]×100%.\nStatistical analysis included the mean and standard error (SEM) of tumor volume at each time point in each group (see the specific data in Table 7). Based on the tumor volume data on the 19th day after administration, statistical analysis was performed to evaluate the differences between groups. T-test was used to analyze the comparison between two groups, and one-way ANOVA was used to analyze the comparison between three or more groups. If there was significant difference in F value, Games-Howell method was used for the test. If there was no significant difference in F value, Dunnet (2-sided) method was used for analysis. All data were analyzed by SPSS 17.0. P<0.05 was considered to have significant difference."}, "[2]": {"tested_on": "Mouse colon cancer CT26 cells", "test": "Proliferation of CT26 cells, CCK8, MRTX1133 with or without IN10018 (Example 3)", "format": "cell-based", "conditions": "72 hours, combination group: 5 μM IN10018 added to each well", "description": "(§1) Mouse colon cancer CT26 cells (Insitute of Biochemistry and Cell Biology) were cultured with RPMI-1640 (Shanghai Basalmedia, classification number: L210KJ, batch number: F210916)+10% FBS (Gibco, classification number: 10099-141c, batch number: 2158737cp) and passaged twice. When the cells were in good condition, the culture solution was placed in a 96-well plate with 3000 cells/well. After the cells were spread for 24 hours, a culture medium containing MRTX1133 (SuperLan Chemical Co., Ltd., classification number: P2621928-55-8, batch number: 131005) was added. 10 drug action concentrations were set, wherein the first concentration was 30 μM, which was serially diluted 5 times, and the last concentration was a control with a drug concentration of 0. Each drug concentration was set in triplicate. At the same time, another group of cells was established with the same drug concentration as the above method. The difference was that 5 μM IN10018 was added to each well. The drugs were mixed and the mixture was cultured in a 5% CO2 incubator at 37° C. for 72 hours.\n(§2) After 72 hours of drug action, the cells were observed under a microscope, and 10 μl of CCK8 detection reagent (Cellorlab, classification number: CX001M, batch number: 2571100) was added to each well. […] Then the plate was read with a microplate reader OD450 ([…])."}, "[3]": {"tested_on": "Mouse lung cancer KPL", "test": "Proliferation of KPL cells, CCK8, MRTX1133 with or without IN10018 (Example 5)", "format": "cell-based", "conditions": "72 hours, MRTX1133 alone", "description": "as §1, with “Mouse lung” for “Mouse colon”, “cancer KPL” for “cancer CT26 cells”, “that 10” for “that 5”\nas §2"}, "[4]": {"tested_on": "mouse colon cancer CT26 cells allograft tumor", "test": "In vivo anti-tumor efficacy, BALB/c mouse subcutaneous allograft tumor model of CT26 cells (Example 9)", "description": "Mouse colorectal cancer cell CT26 (from Nanjing Kebai Biotechnology Co., Ltd., article number: CBP60043) was maintained and passaged by InxMed (Nanjing) Co., Ltd. Cells were cultured in monolayer in vitro, and the culture conditions were RPMI-1640 medium with 10% fetal bovine serum and 37° C. 5% CO2 incubator. Trypsin-EDTA was used for routine digestion and passage two or three times a week. When the cells were in exponential growth period and the saturation reached 80%-90%, the cells were collected, counted and inoculated.\n0.1 mL of cell suspension containing 3×10^5 cells was subcutaneously inoculated on the right back of each mouse. When the tumor volume reached about ˜57 mm^3 (13th day after cell inoculation), mice were randomly divided into groups according to the tumor volume and administered.\nThe assay index was to investigate whether the tumor growth is inhibited, delayed or cured. The diameter of tumor was measured with vernier caliper, 2˜3 times a week. The formula for calculating the tumor volume is: V=0.5×a×b^2, where a and b represent the long and short diameters of the tumor respectively.\nThe anti-tumor effect of the compound was evaluated by TGI (%), which reflected the tumor growth inhibition rate. According to the tumor volume on the first day after grouping, the tumor growth inhibition rate TGI (%) was calculated according to the following formula: […]\nStatistical analysis was based on the tumor volume at the end of the assay and analyzed by Prism Graphpad software. The comparison between multiple groups was analyzed by Two-way ANOVA and Fisher's LSD test. P<0.05 is considered to have significant difference."}, "[5]": {"conditions": "Day 19, D-1553 5 mg/kg PO QD, IN10018 25 mg/kg PO QD, INX0082 10 mg/kg IP BIW"}}, "note": "Several values for one entry are separate records, joined by “and”; a condition that tells them apart may be missing. Equal values may be shown once.", "data": [{"smiles": "COc1cc(C(=O)NC2CCN(C)CC2)c(F)cc1Nc1ncc(C(F)(F)F)c(Oc2cccc3c2C(=O)N(C)C3)n1", "note": "[IN10018]", "values": [{"measurement": "Tumor volume (Day 0)", "setting": "[1]; Day 0, at grouping, Average ± SEM, n = 7", "result": "55 ± 3", "unit": "mm^3"}, {"measurement": "T/C (%) (Day 19)", "setting": "[1]; [5]", "result": 74.7, "unit": "%"}, {"measurement": "TGI (%) (Day 19)", "setting": "[1]; [5]", "result": 23.4, "unit": "%"}, {"measurement": "Tumor volume (Day 19)", "setting": "[1]; Day 19, D-1553 5 mg/kg PO QD, IN10018 25 mg/kg PO QD, INX0082 10 mg/kg IP BIW, Average ± SEM, n = 7", "result": "1352 mm^3 and 1352 ± 284 mm^3"}, {"measurement": "anti-tumor effect compared with the solvent control group", "setting": "[1]; Day 19, D-1553 5 mg/kg, IN10018 25 mg/kg, INX0082 10 mg/kg", "result": "no anti-tumor effect"}]}, {"smiles": "C#Cc1c(F)ccc2cc(O)cc(-c3ncc4c(N5CC6CCC(C5)N6)nc(OC[C@@]56CCCN5C[C@H](F)C6)nc4c3F)c12", "note": "[MRTX1133]", "values": [{"measurement": "IC50", "setting": "[2]", "result": 280, "unit": "nM"}, {"measurement": "IC50", "setting": "[3]", "result": 1760, "unit": "nM"}, {"measurement": "Tumor volume on Day 0", "setting": "[4]; Day 0, at grouping, mean ± SD", "result": "57.4 ± 10.8", "unit": "mm^3"}, {"measurement": "TGI (%)", "setting": "[4]; Day 14, MRTX1133 5 mg/kg IP QD, IN10018 25 mg/kg PO QD, TIGIT 3 mg/kg IP BIW", "result": 63.2, "unit": "%"}, {"measurement": "Tumor volume on Day 14", "setting": "[4]; Day 14 after group administration, MRTX1133 5 mg/kg IP QD, IN10018 25 mg/kg PO QD, TIGIT 3 mg/kg IP BIW, mean ± SD", "result": "1067.8±302.1", "unit": "mm^3"}, {"measurement": "Tumor volume on Day 16", "setting": "[4]; Day 16 after group administration, MRTX1133 5 mg/kg IP QD, IN10018 25 mg/kg PO QD, TIGIT 3 mg/kg IP BIW, mean ± SD", "result": "1672.1±548.1", "unit": "mm^3"}]}]}
